This is an account of results in patent publication US9566265B2, “Carbazole compounds and therapeutic uses of the compounds” (Incuron, LLC, priority 2008, dated 2017).

Data set [1] relates to p53. Put plainly: p53 activation assay, p53 responsive luciferase reporter cell line. The conditions noted are these: Homo sapiens, 16 h, HT1080-L or RCC45ConALuc reporter cells, 16 h; read-out: EC50 value (p53 activation). In kind it is cell-based, human. The protocol:
The potency of a present carbazole compound is determined by measuring an ability of the compound to inhibit NF-κB activity or to activate p53. […] Theoretically, such assays of the dose-response effect of activator compounds can be described as a sigmoidal curve expressing a degree of activation as a function of concentration. The curve also theoretically passes through a point at which the concentration is sufficient to increase activity to a level that is 50% that of the difference between a baseline and the maximal activity in the assay. […] Determination of an EC50 value is made using conventional biochemical (acellular) assay techniques or cell-based assay techniques.
The potency of a carbazole compound is determined by measuring an ability of the compound to activate p53.
The p53 activation assay for determination of the EC50 value was performed as follows:
HT1080-L (human fibrosarcoma cells with ConALuc reporter)
RCC45ConALuc (human renal cell carcinoma cell line with ConALuc reporter)
1. Two types of standard cells were used, either HT1080-L or RCC45ConALuc cells. Both cell lines stably express a p53 responsive luciferase reporter construct.
2. HT1080-L cells were grown in DMEM medium containing 10% FBS. RCC45ConALuc cells were grown in RPMI medium containing 10% FBS (Pen/Strep can be added to a final concentration of 1%, if desired). Both cell lines were grown in a humidified incubator at 37° C. with 5% CO2. For normal culturing, both cell lines were split using 1× trypsin-EDTA at a ratio of 1:20 for HT1080-L and 1:5 for RCC45ConALuc cells every 3-4 days (when cells are 80-90% confluent).
3. A day before the experiment, the cells are trypsinized for about 5 minutes in 1× tripsin/EDTA solution in 37° C. incubator and plated in 96 well plates. HT1080-L cells were seeded at a density of 1×10^4/well in standard DMEM medium in a volume of 50 μl. RCC45ConALuc were seeded at a density of 2×10^4/well in the volume of 50 uL in standard RPMI medium.
4. The next day, various carbazole compounds were prepared by dilution of stock solutions in standard DMEM medium such that the cells were treated with the final chemical concentrations in Table 1 below. Stock solutions were made up in DMSO. Typically, chemicals were made up as 20 mM stock solutions.
5. Each tested compound used two rows of a 96-well plate, thus four compounds (e.g., W, X, Y, Z) were tested in one plate simultaneously. In addition to test compounds, each plate included positive and negative controls. As positive control, 9aa was used at a dose of 3 μM. As a negative control, DMSO was used in final concentration 0.1%.
1. Dilutions of chemicals added to the plate were made up as 2× concentrations in standard DMEM and added to corresponding well in a volume of 50 μl.
2. Chemicals were diluted in standard DMEM by two time serial dilutions starting from 40 μM (2× of highest concentration, e.g., 20 μM). For one cell line, the minimum volume was 125 μL of 2× working solution of chemical of each concentration in standard DMEM.
4. Sixteen hours following compound addition, all wells with the highest concentrations of compounds are checked microscopically for the presence of toxic effect, because death of cells caused by compounds may not allow detecting luciferase activity. If cytotoxocity is evident, other doses of the same compounds were checked for the presence of toxicity. The lowest dose causing toxic effect was recorded.
5. After microscopic examination, 15 μl of Bright Glo luciferase assay system were added to each well and after 5 min incubation at RT, the plates were read on a 96 well plate luminometer with a measurement time of 0.1 sec. A shaking step was included before measurement.
6. The folds of luciferase activation for each concentration of each chemical were calculated by dividing the detected luciferase activity at each chemical concentration by the average of the luciferase activity for the DMSO control on the same plate.
(Reporter assays use an easily measured gene product as a stand-in for the process of interest.)

Data set [2] relates to γH2AX. Description: γH2AX staining (Table I). It counts as cell-based.
In data set [3] the test system is ATM/ATR. Description: ATM/ATR activation (Table I). In kind it is cell-based.
Data set [4] relates to Chk1/2. Description: Chk1/2 phosphorylation (Table I). It counts as cell-based.
Data set [5] deals with Topo II. Put plainly: Topo II inhibition in cells (Table I). In kind it is cell-based.
Data set [6] deals with Topo II. Put plainly: Topo II inhibition in vitro (Table I). It counts as biochemical.
The test system of data set [7] is thirteen cancer cell lines. Description: relative cell survival of cancer cell lines, methylene blue staining (FIG. 11). It counts as cell-based. The conditions noted are these: 24 hours treatment, then compound-free medium. As to the method: FIG. 11 contains plots of concentration of Compound 100 (μM) vs. relative cell survival for thirteen cancer cell lines showing that a present carbazole compound is an effective agent against numerous types of cancer;
Each of the cell lines presented in FIG. 11 was seeded into 96 well plates. The next day, cells were treated with a range of concentrations of Compound 100. Treatment occurred for 24 hours, at which time compound-filled medium was replaced with compound-free medium and cells were allowed to grow until the control wells, which were treated with only vehicle control (DMSO), reached a monolayer (typically within 48 hours). Cells then were fixed and stained with 0.5% methylene blue in 50% methanol. The dye was eluted with 1% SDS and the absorbance measured at 650 nm. Data is presented as the absorbance at 650 nm versus the concentration of Compound 100.

Data set [8] in a line: Ames test. A general note: The Ames test uses bacterial strains that need an amino acid and regain growth without it when mutated back.

A word on the EC50: it is the midpoint of the concentration-response curve. Regarding `CCN(CC)CCn1c2ccc([N+](=O)[O-])cc2c2cc([N+](=O)[O-])ccc21` [Compound 100], the EC50 in data set [1] amounted to 1.3 µM. Also, the γH2AX staining result in data set [2] was “no”. In addition, the ATM/ATR activation result in data set [3] was “no”. The Chk1/2 phospho result in data set [4] was “no”. In data set [5], the “Topo II inhibition in cells” value was “no”. Moreover, in data set [6], the “Topo II inhibition in vitro” value is “ligation”. Also, in data set [7], the “anti-cancer activity against tested cancer cells” value is on record as “significant anti-cancer activity”. Further, the Ames test entry in data set [8] is given as “negative”.

As to `COc1cccc2c1C(=O)c1c(O)c3c(c(O)c1C2=O)C[C@@](O)(C(=O)CO)C[C@@H]3O[C@H]1C[C@H](N)[C@H](O)[C@H](C)O1` [doxorubicin], in data set [2], the γH2AX staining result is “yes”. The ATM/ATR activation entry in data set [3] was “yes”. Besides, the Chk1/2 phospho result in data set [4] is recorded as “yes”. In data set [5], the “Topo II inhibition in cells” value is reported as “yes”. Further, in data set [6], the “Topo II inhibition in vitro” value was “relegation”. Moreover, the Ames test entry in data set [8] is listed as “negative”.
